Measurements taken from patent publication EP1561465A2, “Methods of use of fluoroquinolone compounds against bacteria” (LG Life Sciences, Ltd., priority 1999, dated 2001).
Converted amounts (≈) assume the structure as drawn. Where two headings read alike, the source gives them in different places.

Experiments:
Assay type in all cases: cell-based
Moraxella catarrhalis = experiment: MIC by NCCLS reference broth microdilution, 450 respiratory tract pathogens
Streptococcus pyogenes = experiment: as above; settings: Streptococcus pyogenes
Klebsiella pneumoniae = experiment: as above; settings: Klebsiella pneumoniae
Staphylococcus aureus = experiment: as above
Haemophilus influenzae = experiment: as above; settings: Haemophilus influenzae; for MIC90: read-out: MIC90
Streptococcus pneumoniae [1] = experiment: MIC by agar dilution (NCCLS), 411 isolates Buenos Aires 1998-99; settings: Streptococcus pneumoniae, S. pneumoniae, read-out: MIC90
Streptococcus pneumoniae [2] = experiment: MIC by NCCLS reference broth microdilution, 450 respiratory tract pathogens; settings: for MIC50 / MIC90 / MIC: Streptococcus pneumoniae
[3] = Streptococcus pyogenes (n = 100)
[4] = erythromycin resistant C phenotype [MLSB] (n = 20)
[5] = erythromycin resistant I phenotype [MLSB] (n = 20)
[6] = erythromycin resistant M phenotype (n = 20)
[7] = extended spectrum β-lactamase positive (n = 20)
[8] = β-lactamase positive and erythromycin resistant (n = 10)
[9] = Haemophilus influenzae (n = 100)
[10] = Penicillin intermediate (n = 17)
[11] = Penicillin susceptible (n = 69)
[12] = Streptococcus pneumoniae (n = 100)
[13] = erythromycin resistant M phenotype (n = 16)
[14] = erythromycin resistant MLSB phenotype (n = 16)
[15] = penicillin intermediate (n = 16)
[16] = penicillin susceptible (n = 20)

CO/N=C(\C(=O)N[C@@H]1C(=O)N2C(C(=O)O)=C(COC(N)=O)CS[C@H]12)c1ccco1 [Cefuroxime, cefuroxime]
MIC (Moraxella catarrhalis; Moraxella catarrhalis (n = 50)): 0.00375 to 1 µg/mL (≈ 0.00884 to 2.36 µM)
MIC50 (Moraxella catarrhalis; Moraxella catarrhalis (n = 50)): 0.25 µg/mL (≈ 0.589 µM)
MIC90 (Moraxella catarrhalis; Moraxella catarrhalis (n = 50)): 1 µg/mL (≈ 2.36 µM)
MIC (Moraxella catarrhalis; β-lactamase negative (n = 13)): 0.00375 to 1 µg/mL (≈ 0.00884 to 2.36 µM)
MIC50 (Moraxella catarrhalis; β-lactamase negative (n = 13)): 0.12 µg/mL (≈ 0.283 µM)
MIC90 (Moraxella catarrhalis; β-lactamase negative (n = 13)): 0.5 µg/mL (≈ 1.18 µM)
MIC (Moraxella catarrhalis; β-lactamase positive (n = 37)): 0.00375 to 1 µg/mL (≈ 0.00884 to 2.36 µM)
MIC50 (Moraxella catarrhalis; β-lactamase positive (n = 37)): 0.25 µg/mL (≈ 0.589 µM)
MIC90 (Moraxella catarrhalis; β-lactamase positive (n = 37)): 1 µg/mL (≈ 2.36 µM)
MIC (Streptococcus pyogenes; [3]): 0.00375 to 0.015 µg/mL (≈ 0.00884 to 0.0353 µM)
MIC50 (Streptococcus pyogenes; [3]): 0.0075 µg/mL (≈ 0.0177 µM)
MIC90 (Streptococcus pyogenes; [3]): 0.015 µg/mL (≈ 0.0353 µM)
MIC (Streptococcus pyogenes; [4]): 0.00375 to 0.015 µg/mL (≈ 0.00884 to 0.0353 µM)
MIC50 (Streptococcus pyogenes; [4]): ≤ 0.00375 µg/mL
MIC90 (Streptococcus pyogenes; [4]): 0.015 µg/mL (≈ 0.0353 µM)
MIC (Streptococcus pyogenes; [5]): 0.00375 to 0.01 µg/mL (≈ 0.00884 to 0.0236 µM)
MIC50 (Streptococcus pyogenes; [5]): ≤ 0.00375 µg/mL
MIC90 (Streptococcus pyogenes; [5]): 0.015 µg/mL (≈ 0.0353 µM)
MIC (Streptococcus pyogenes; [6]): 0.00375 to 0.015 µg/mL (≈ 0.00884 to 0.0353 µM)
MIC50 (Streptococcus pyogenes; [6]): ≤ 0.00375 µg/mL
MIC90 (Streptococcus pyogenes; [6]): 0.015 µg/mL (≈ 0.0353 µM)
MIC (Streptococcus pyogenes; fully susceptible (n = 20)): 0.0075 to 0.015 µg/mL (≈ 0.0177 to 0.0353 µM)
MIC50 (Streptococcus pyogenes; fully susceptible (n = 20)): 0.0075 µg/mL (≈ 0.0177 µM)
MIC90 (Streptococcus pyogenes; fully susceptible (n = 20)): 0.015 µg/mL (≈ 0.0353 µM)
MIC (Streptococcus pyogenes; multi-drug resistant (n = 20)): 0.0075 to 0.015 µg/mL (≈ 0.0177 to 0.0353 µM)
MIC90 (Streptococcus pyogenes; multi-drug resistant (n = 20)): 0.015 µg/mL (≈ 0.0353 µM)
MIC50 (Klebsiella pneumoniae; Klebsiella pneumoniae (n = 50)): 2 µg/mL (≈ 4.71 µM)
MIC90 (Klebsiella pneumoniae; Klebsiella pneumoniae (n = 50)): 128 µg/mL (≈ 302 µM)
MIC50 (Klebsiella pneumoniae; [7]): 128 µg/mL (≈ 302 µM)
MIC90 (Klebsiella pneumoniae; [7]): > 128 µg/mL
MIC (Staphylococcus aureus; Staphylococcus aureus (n = 50)): 0.00375 to 0.25 µg/mL (≈ 0.00884 to 0.589 µM)
MIC50 (Staphylococcus aureus; Staphylococcus aureus (n = 50)): 0.25 µg/mL (≈ 0.589 µM)
MIC90 (Staphylococcus aureus; Staphylococcus aureus (n = 50)): 0.25 µg/mL (≈ 0.589 µM)
MIC (Staphylococcus aureus; β-lactamase negative (n = 20)): 0.0075 to 0.25 µg/mL (≈ 0.0177 to 0.589 µM)
MIC50 (Staphylococcus aureus; β-lactamase negative (n = 20)): 0.25 µg/mL (≈ 0.589 µM)
MIC90 (Staphylococcus aureus; β-lactamase negative (n = 20)): 0.25 µg/mL (≈ 0.589 µM)
MIC (Staphylococcus aureus; β-lactamase positive (n = 20)): 0.06 to 0.25 µg/mL (≈ 0.141 to 0.589 µM)
MIC50 (Staphylococcus aureus; β-lactamase positive (n = 20)): 0.25 µg/mL (≈ 0.589 µM)
MIC90 (Staphylococcus aureus; β-lactamase positive (n = 20)): 0.25 µg/mL (≈ 0.589 µM)
MIC (Staphylococcus aureus; [8]): 0.06 to 0.25 µg/mL (≈ 0.141 to 0.589 µM)
MIC50 (Staphylococcus aureus; [8]): 0.12 µg/mL (≈ 0.283 µM)
MIC90 (Staphylococcus aureus; [8]): 0.25 µg/mL (≈ 0.589 µM)
MIC (Haemophilus influenzae; [9]): 0.12 to 4 µg/mL (≈ 0.283 to 9.43 µM)
MIC50 (Haemophilus influenzae; [9]): 0.5 µg/mL (≈ 1.18 µM)
MIC90 (Haemophilus influenzae; [9]): 1 µg/mL (≈ 2.36 µM)
MIC (Haemophilus influenzae; β-lactamase negative (n = 80)): 0.25 to 1 µg/mL (≈ 0.589 to 2.36 µM)
MIC50 (Haemophilus influenzae; β-lactamase negative (n = 80)): 0.5 µg/mL (≈ 1.18 µM)
MIC90 (Haemophilus influenzae; β-lactamase negative (n = 80)): 1 µg/mL (≈ 2.36 µM)
MIC (Haemophilus influenzae; β-lactamase positive (n = 20)): 0.12 to 4 µg/mL (≈ 0.283 to 9.43 µM)
MIC50 (Haemophilus influenzae; β-lactamase positive (n = 20)): 0.5 µg/mL (≈ 1.18 µM)
MIC90 (Haemophilus influenzae; β-lactamase positive (n = 20)): 1 µg/mL (≈ 2.36 µM)
MIC90 (Streptococcus pneumoniae [1]; [10]): 4 µg/mL (≈ 9.43 µM)
MIC90 (Streptococcus pneumoniae [1]; Penicillin resistant (n = 4)): 4 µg/mL (≈ 9.43 µM)
MIC90 (Streptococcus pneumoniae [1]; [11]): 0.03 µg/mL (≈ 0.0707 µM)
MIC Range (Streptococcus pneumoniae [2]; [12]): ≤0.0075 to 8 µg/mL
MIC50 (Streptococcus pneumoniae [2]; [12]): 0.03 µg/mL (≈ 0.0707 µM)
MIC90 (Streptococcus pneumoniae [2]; [12]): 2 µg/mL (≈ 4.71 µM)
MIC (Streptococcus pneumoniae [2]; [13]): 0.0075 to 0.12 µg/mL (≈ 0.0177 to 0.283 µM)
MIC50 (Streptococcus pneumoniae [2]; [13]): 0.015 µg/mL (≈ 0.0353 µM)
MIC90 (Streptococcus pneumoniae [2]; [13]): 0.12 µg/mL (≈ 0.283 µM)
MIC (Streptococcus pneumoniae [2]; [14]): 0.015 to 0.5 µg/mL (≈ 0.0353 to 1.18 µM)
MIC50 (Streptococcus pneumoniae [2]; [14]): 0.015 µg/mL (≈ 0.0353 µM)
MIC90 (Streptococcus pneumoniae [2]; [14]): 0.03 µg/mL (≈ 0.0707 µM)
MIC (Streptococcus pneumoniae [2]; multi-drug resistant (n = 16)): 0.015 to 0.25 µg/mL (≈ 0.0353 to 0.589 µM)
MIC50 (Streptococcus pneumoniae [2]; multi-drug resistant (n = 16)): 0.03 µg/mL (≈ 0.0707 µM)
MIC90 (Streptococcus pneumoniae [2]; multi-drug resistant (n = 16)): 0.03 µg/mL (≈ 0.0707 µM)
MIC (Streptococcus pneumoniae [2]; [15]): 0.12 to 8 µg/mL (≈ 0.283 to 18.9 µM)
MIC50 (Streptococcus pneumoniae [2]; [15]): 2 µg/mL (≈ 4.71 µM)
MIC90 (Streptococcus pneumoniae [2]; [15]): 2 µg/mL (≈ 4.71 µM)
MIC (Streptococcus pneumoniae [2]; penicillin resistant (n = 18)): 2 to 8 µg/mL (≈ 4.71 to 18.9 µM)
MIC50 (Streptococcus pneumoniae [2]; penicillin resistant (n = 18)): 2 µg/mL (≈ 4.71 µM)
MIC90 (Streptococcus pneumoniae [2]; penicillin resistant (n = 18)): 8 µg/mL (≈ 18.9 µM)
MIC (Streptococcus pneumoniae [2]; [16]): 0.0075 to 0.015 µg/mL (≈ 0.0177 to 0.0353 µM)
MIC50 (Streptococcus pneumoniae [2]; [16]): 0.015 µg/mL (≈ 0.0353 µM)
MIC90 (Streptococcus pneumoniae [2]; [16]): 0.015 µg/mL (≈ 0.0353 µM)

CO/N=C(\C(=O)N[C@@H]1C(=O)N2C(C(=O)O)=C(CSc3nc(=O)c(=O)[nH]n3C)CS[C@H]12)c1csc(N)n1 [Ceftriaxone, ceftriaxone]
MIC90 (Streptococcus pneumoniae [1]; [10]): 1 µg/mL (≈ 1.8 µM)
MIC90 (Streptococcus pneumoniae [1]; Penicillin resistant (n = 4)): 1 µg/mL (≈ 1.8 µM)
MIC90 (Streptococcus pneumoniae [1]; [11]): 0.016 µg/mL (≈ 0.0289 µM)
